Assays:
Format in all cases: cell-based
[1] = system: Saccharomyces cerevisiae wild type strain BY4743; assay: AF1 yeast metabolite analysis by GC-MS and LC-MS; settings: for # Compounds perturbed by treatment: 2×MIC, two hours
[2] = system: Saccharomyces cerevisiae wild type strain BY4743; assay: AF1 combined gene expression and metabolite data (reactions, pathways, cluster analysis)
From the text: The data were then combined to determine the number of reactions showing an enzyme and at least one compound perturbed, and to determine the number of pathways having at least one enzyme and one perturbed compound perturbed. The results of the analysis are represented in Tables 16 and 17, and were difficult to interpret, illustrating that the ability to draw conclusions from compound mapping to pathways is limited when absent additional data. […] A coherent data set was created from data obtained from the four above-described drug compounds. The data were reduced by using principle components analysis and cluster analysis.

[3] = system: Saccharomyces cerevisiae wild type strain BY4743; assay: AF1 yeast gene expression analysis (microarray, KEGG pathway mapping); settings: for # Transcripts perturbed by treatment: 2×MIC, two hours; for Number of Pathways Affected by at Least One Gene, # Pathways: p < 0.05, KEGG mapping
Procedure: Saccharomyces cerevisiae wild type strain BY4743 was purchased from American Type Culture Center (ATCC, Manassas, Va.). The yeast strain was grown in YPD or SD media. H. […] The cultures started from fresh single colonies were grown in 1.0 ml YPD overnight at 30° C. […] The OD600 was adjusted to 1.0 with YPD media, then 2.0 ml of each was inoculated into three 250 ml flasks, each containing 50 ml of SD media. […] The cells were kept growing for another two hours, then collected by centrifugation at 4000 rpm for 5 minutes at 4° C. Pellets were washed once with ice-cold water, then were lyophilized overnight at 4° C. […] Tubes were vortexed for 30 seconds, then incubated for 10 minutes at room temperature (RT). […] Tubes were incubated for 10 minutes at RT. Samples were centrifuged for 20 minutes as before. Pellets were washed with 400 μl 70% ethanol and centrifuged for 10 minutes as before. The pellet was then dissolved in 100 μl nuclease-free water. RNA quality was determined using the Bioanalyzer 2100 and the RNA 6000 assay (Agilent Technologies, Palo Alto, Calif.) according to manufacturer's instructions. RNA concentrations were determined spectrophotometrically by measuring the absorption at 260 nm in an Ultrospec 2000 (Pharmacia Biotech, Piscataway, N.J.). […] Labeled cRNAs were evaluated using the RNA 6000 assay on the Agilent Bioanalyzer 2100. Labeled cRNA concentrations were determined spectrophotometrically by measuring the absorption at 260 nm in an Ultrospec 2000 (Pharmacia Biotech, Piscataway, N.J.). […] Each pair of samples to be hybridized were independently labeled and hybridized utilizing a fluor reversal for a total of two hybridizations per sample pair. The microarrays were scanned simultaneously in the Cy3 and Cy5 channels with Agilent's 48-slide, Dual Laser DNA Microarray Scanner (Agilent Technologies, Palo Alto, Calif.) at 10 μm resolution using default settings. Image Analysis Software (Version A.4.0.45, Agilent Technologies, Palo Alto, Calif.) was used for image analysis. Each feature was determined from an array's associated pattern file and a detection algorithm. Intensity values for each feature were determined after subtracting background derived from an average of negative control features. Features with unusual pixel intensity statistics (e.g., high non-uniformity, saturation in either channel, and the like) were excluded from downstream analyses. Data was loaded into the Rosetta RESOLVER database (Rosetta Inpharmatics Inc., Kirkland, Wash.) for storage and analysis. Data was evaluated after combining results from fluor reversal replicate hybridizations. The annotation of yeast ORFs was obtained from Proteome BIOKNOWLEDGE Library (Incyte Genomics, Palo Alto, Calif.). In AF1, two different technologies were utilized: gene expression analysis (for examination of mRNA expression) and metabolite analysis. […] As noted previously, existing metabolic databases may be helpful in practicing the methods and systems of the present invention, but many databases include limitations that make their use in data analysis and pathway mapping less than straightforward. […] This caveat to KEGG makes it difficult to pinpoint the correct pathway when attempting to link a gene to a specific pathway. The pathway score indicates how meaningful the mapping is, or how likely it is to be correctly indicative of the pathway involved in the perturbation under examination. The method provides a pathway score based on perturbation levels of genes and/or compounds and the information content of each gene and/or compound in the pathway, i.e., a pathway score indicates the extent to which other pathways are mapped to a gene/compound. For example, imagine that two genes are perturbed in a particular experiment.

C[C@@H]1[C@H](O)[C@@H](C)/C=C/C=C/C=C/C=C/C=C/C=C/C=C/[C@H](O[C@@H]2O[C@H](C)[C@@H](O)[C@H](N)[C@@H]2O)C[C@@H]2O[C@](O)(C[C@@H](O)C[C@@H](O)[C@H](O)CC[C@@H](O)C[C@@H](O)CC(=O)O[C@H]1C)C[C@H](O)[C@H]2C(=O)O [Amphoteracin B]
# Compounds perturbed by treatment ([1]; P < 0.05): 16
# Compounds perturbed by treatment ([1]; P < 0.1): 21
Number of Reactions Having an Enzyme and at Least One Compound Perturbed, # Reactions [2]: 54
# Transcripts perturbed by treatment ([3]; P < 0.05): 4363
# Transcripts perturbed by treatment ([3]; P < 0.1): 4652
Number of Pathways Affected by at Least One Gene, # Pathways [3]: 97

OC(Cn1cncn1)(Cn1cncn1)c1ccc(F)cc1F [Fluconazole]
# Compounds perturbed by treatment ([1]; P < 0.05): 2
# Compounds perturbed by treatment ([1]; P < 0.1): 6
Fold Change: TMS mevalonic acid lactone ([1]; Platform GC): 0.1434
Fold Change: squalene ([1]; Platform GC): 0.1999
Fold Change: sugar? ([1]; Platform GC): 0.4817
Fold Change: tetradecanoic acid ([1]; Platform GC): 0.07967
Fold Change: threonine2 ([1]; Platform GC): 0.5053
Fold Change: threonine3 ([1]; Platform GC): 0.2513
Fold Change: tms glutamine3 ([1]; Platform GC): 0.7271
Fold Change: tms lysine4 ([1]; Platform GC): 0.3657
Fold Change: tms tyrosine2 ([1]; Platform GC): 0.8643
Fold Change: tms tyrosine3 ([1]; Platform GC): 0.3321
Fold Change: valine ([1]; Platform GC): 0.2727
Fold Change, benzoic acid ([1]; Platform nLC): 0
Fold Change: retinoic acid ([1]; Platform nLC): 0
Fold Change: salicylic/HObenzoic ([1]; Platform nLC): 0
Fold Change: selenoDLmethionine ([1]; Platform nLC): −0.5748
Fold Change: serine ([1]; Platform nLC): 0.3936
Fold Change: shikimic acid ([1]; Platform nLC): 0
Fold Change: sinapinic acid ([1]; Platform nLC): 0
Fold Change: sorbitol/mannitol ([1]; Platform nLC): 0.365
Fold Change: succinic ([1]; Platform nLC): 0.3094
Fold Change: sucrose ([1]; Platform nLC): 0.3104
Fold Change: sugar-phosphate ([1]; Platform nLC): −0.05306
Fold Change: tetradecanoic acid ([1]; Platform nLC): 0.5495
Fold Change: threonine/homoserin ([1]; Platform nLC): 0.3257
Fold Change: thymine ([1]; Platform nLC): 0
Fold Change: tryptophan ([1]; Platform nLC): 1.649
Fold Change: tyrosine ([1]; Platform nLC): 0.2303
Fold Change: uracil ([1]; Platform nLC): 1.256
Fold Change: uridine ([1]; Platform nLC): 0.3463
Fold Change: urocanic acid ([1]; Platform nLC): 0
Fold Change: valine ([1]; Platform nLC): 0.3235
Fold Change: xanthosineDiH2O ([1]; Platform nLC): 0
Fold Change: zeatin ([1]; Platform nLC): 0
Fold Change: riboflavin ([1]; Platform pLC): 0
Fold Change: selenoDLmethionine ([1]; Platform pLC): −0.6865
Fold Change: serine ([1]; Platform pLC): 0.11
Fold Change: sugar-phosphate ([1]; Platform pLC): 0
Fold Change: thiamine ([1]; Platform pLC): 0
Fold Change: threonine/homoserin ([1]; Platform pLC): 0.1604
Fold Change: thymine ([1]; Platform pLC): 0
Fold Change: tryptophan ([1]; Platform pLC): 0
Fold Change: tyrosine ([1]; Platform pLC): 0.1099
Fold Change: uric acid ([1]; Platform pLC): 0
Fold Change: urocanic acid ([1]; Platform pLC): 0
Fold Change: xanthosine(diH2O) ([1]; Platform pLC): 0
Fold Change: zeatin ([1]; Platform pLC): 0
Number of Reactions Having an Enzyme and at Least One Compound Perturbed, # Reactions [2]: 2
Number of Pathways Affected by at Least One Gene, # Pathways [3]: 79

CC(=O)N1CCN(c2ccc(OCC3COC(Cn4ccnc4)(c4ccc(Cl)cc4Cl)O3)cc2)CC1 (centres unmarked) [Ketoconazole]
# Compounds perturbed by treatment ([1]; P < 0.1): 15
Number of Reactions Having an Enzyme and at Least One Compound Perturbed, # Reactions [2]: 21
Number of Pathways Affected by at Least One Gene, # Pathways [3]: 90

Reference: patent US20040002842A1, “Methods and systems for analyzing complex biological systems” (priority 2001, published 2004)
